Experimental data reported in paper PMC11762167, “G Protein-Coupled Receptor 17 Inhibits Glucagon-like Peptide-1 Secretion via a Gi/o-Dependent Mechanism in Enteroendocrine Cells” (Biomolecules, 2024).

Legend:
Type in all cases: cell-based
mGPR17 [1] = target: T1, mGPR17 (Mus musculus, UniProt Q6NS65); experiment: Calcium mobilization in HEK293 cells transfected with mGPR17
Protocol: (§1) HEK293 cells were maintained and transfected as previously described.
Calcium flux in HEK293 cells was measured as previously described.

hGPR17L-V96M = target: T2, hGPR17L-V96M (Homo sapiens, UniProt Q13304, V96M); experiment: GLP-1 secretion from GLUTag cells expressing hGPR17L-V96M; details: 100 µM MDL29,951, GLUTag hGPR17L-V96M
T2 construct: host or cells: GLUTag cells, adenoviral transduction
T2 sequence (Q13304 whole entry V96M): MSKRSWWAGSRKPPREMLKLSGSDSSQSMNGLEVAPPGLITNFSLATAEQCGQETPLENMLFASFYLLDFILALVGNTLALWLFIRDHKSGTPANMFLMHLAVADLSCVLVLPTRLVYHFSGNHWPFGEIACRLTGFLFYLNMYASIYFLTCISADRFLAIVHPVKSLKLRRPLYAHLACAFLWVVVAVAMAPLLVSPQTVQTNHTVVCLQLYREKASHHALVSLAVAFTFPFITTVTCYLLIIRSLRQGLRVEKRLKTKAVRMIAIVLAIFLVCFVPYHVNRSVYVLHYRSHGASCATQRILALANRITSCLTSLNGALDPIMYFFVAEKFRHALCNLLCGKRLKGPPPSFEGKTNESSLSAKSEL
Protocol: (§2) GLUTag cells were maintained in Dulbecco’s Modified Eagle Medium (DMEM) supplemented with 10% fetal bovine serum and 1% penicillin–streptomycin in a humidified incubator at 37 °C and 5% CO2. For adenovirus transduction, GLUTag cells were seeded into poly-D-lysine coated 96-well plates or 4-chamber slides. The next day, cells were transduced with adenoviruses (100–1250 viral particles per cell at time of seeding) as indicated. After 24–30 h, adenovirus-containing media was changed to serum-free growth media for overnight serum starvation. The following day, GLUTag cells were used for cAMP or calcium signaling assays, GLP-1 secretion assays, or immunostaining and imaging.
GLUTag cells were seeded into poly-D-lysine-coated 96-well plates and transduced with adenovirus as specified above and then tested for GLP-1 secretion. Medium was removed and cells were washed two times with GLP-1 secretion buffer (138 mM NaCl, 4.5 mM KCl, 4.2 mM NaHCO3, 2.5 mM CaCl2, 1.2 mM MgCl2, 10 mM HEPES, 1 mM glucose, and 0.1% bovine serum albumin, pH 7.4). […] Plates were then centrifuged at 300× g for 1 min at 4 °C, and 75 µL of the supernatant was removed and frozen at −80 °C until subsequent GLP-1 quantification. Total GLP-1 was quantified using the Meso Scale Discovery Total GLP-1 V-PLEX kit (Rockville, MD, USA; K1503PD) according to manufacturer’s instructions. […]

hGPR17L [2] = target: T3, hGPR17L (Homo sapiens, UniProt Q13304); experiment: Live-cell GloSensor cAMP in GLUTag cells transfected with hGPR17L; set-up: host or cells: GLUTag cells (murine enteroendocrine line), adenoviral transduction; details: MDL29,951 alone or together with forskolin
T3 sequence (Q13304 whole entry): as the sequence (Q13304 whole entry V96M) above, with M96V counted along it
Protocol: (§3) Live-cell, real-time cAMP measurements were performed using Promega (Madison, WI, USA) GloSensor cAMP luminescent biosensor technology. Glosensor cAMP experiments were conducted as previously described in GLUTag cells and HEK293 cells.

mGPR17 [3] = target: T1, mGPR17; experiment: Membrane β-arrestin recruitment in HEK293 cells transfected with mGPR17
Protocol: (§4) Membrane β-arrestin recruitment measurements were conducted using a luminescent membrane β-arrestin recruitment reporter assay. HEK293 cells were seeded into white, opaque, poly-D-lysine-coated 96-well plates and transiently transfected using Lipofectamine 3000 (Thermo Fisher Scientific, Waltham, MA, USA) according to the manufacturer’s protocol on the following day. At 48 h post-transfection, cells were washed twice with assay buffer (HBSS, 20 mM HEPES, pH 7.4) and allowed to equilibrate to room temperature for 15 min in assay buffer. Cells were then loaded with coelenterazine h (Nanolight Technology, Prolume Ltd., Lakeside, AZ, USA; 5 µM final concentration) for 5 min in the dark. Luminescence was read using a SpectraMax iD3 (Molecular Devices) with 1 s integration time. Baseline luminescence was read every 2 min for 6 min. Agonist was added and then luminescence was read every 2 min for 30 min.

hGPR17L [4] = target: T3, hGPR17L; experiment: Membrane β-arrestin recruitment in HEK293 cells transfected with hGPR17L
Protocol: as §4

hGPR17L [5] = target: T3, hGPR17L; experiment: GloSensor cAMP in HEK293 cells transfected with hGPR17L; set-up: host or cells: GLUTag cells (murine enteroendocrine line), adenoviral transduction
Protocol: as §1, §3

hGPR17L [6] = target: T3, hGPR17L; experiment: GLP-1 secretion from GLUTag cells expressing hGPR17L; set-up: host or cells: GLUTag cells (murine enteroendocrine line), adenoviral transduction
Protocol: as §2
GLUTag cells were seeded into poly-D-lysine-coated 96-well plates and transduced with adenovirus as specified above and then tested for GLP-1 secretion. Medium was removed and cells were washed two times with GLP-1 secretion buffer (138 mM NaCl, 4.5 mM KCl, 4.2 mM NaHCO3, 2.5 mM CaCl2, 1.2 mM MgCl2, 10 mM HEPES, 1 mM glucose, and 0.1% bovine serum albumin, pH 7.4). Cells were stimulated for 2 h with indicated treatments diluted in GLP-1 secretion buffer for a total volume of 200 µL/well at 37 °C and 5% CO2. Plates were then centrifuged at 300× g for 1 min at 4 °C, and 75 µL of the supernatant was removed and frozen at −80 °C until subsequent GLP-1 quantification. Total GLP-1 was quantified using the Meso Scale Discovery Total GLP-1 V-PLEX kit (Rockville, MD, USA; K1503PD) according to manufacturer’s instructions. For PTX treatment conditions, cells were pretreated with 100 ng/mL PTX overnight. For experiments with YM-254890, cells were pretreated for 15 min at 37 °C and 5% CO2.

[7] = HEK293 mGPR17 versus hGPR17L and hGPR17S
[8] = read-out: β-arrestin Potency EC50

T1 sequence (Q6NS65 whole entry): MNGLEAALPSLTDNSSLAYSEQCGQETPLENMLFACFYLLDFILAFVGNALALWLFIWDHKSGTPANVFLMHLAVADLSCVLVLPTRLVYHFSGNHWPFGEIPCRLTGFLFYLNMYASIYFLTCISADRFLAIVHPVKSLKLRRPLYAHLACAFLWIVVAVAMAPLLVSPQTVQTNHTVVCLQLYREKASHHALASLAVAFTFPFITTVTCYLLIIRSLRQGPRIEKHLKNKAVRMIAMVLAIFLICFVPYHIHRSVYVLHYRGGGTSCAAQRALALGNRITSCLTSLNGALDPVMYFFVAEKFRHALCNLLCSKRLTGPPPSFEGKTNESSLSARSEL

SMILES: O=C(O)CCc1c(C(=O)O)[nH]c2cc(Cl)cc(Cl)c12 [MDL29,951]
- Calcium Emax (Mean Peak ΔF/F) (mGPR17 [1]; HEK293 mGPR17): 0.70±0.09
- Calcium Potency (pEC50) (mGPR17 [1]; HEK293 mGPR17): 6.31±0.05
- EC50 (mGPR17 [1]; HEK293 mGPR17, read-out: Calcium Potency EC50): 490 nM
- calcium response potency, fold less potent than human GPR17 isoforms (mGPR17 [1]; [7]): approximately 10 fold
- reduction in calcium efficacy as compared to human GPR17 isoforms (mGPR17 [1]; [7]): > 60%
- effect on F/I-stimulated GLP-1 secretion (hGPR17L-V96M): no effect
- pattern of cAMP modulation, live-cell bioluminescent cAMP biosensor (hGPR17L [2]): biphasic pattern
- β-arrestin Emax (Peak ΔRLU/RLU) (mGPR17 [3]): 0.54±0.03
- β-arrestin Potency (pEC50) (mGPR17 [3]): 6.69±0.10
- EC50 (mGPR17 [3]; [8]): 200 nM
- β-arrestin Emax (Peak ΔRLU/RLU) (hGPR17L [4]): 0.50±0.03
- β-arrestin Potency (pEC50) (hGPR17L [4]): 6.72±0.09
- EC50 (hGPR17L [4]; [8]): 190 nM
- cAMP Maximum Inhibition (% Inhibition) (hGPR17L [5]; 3 µM forskolin): 48±2.9%
- cAMP Potency (pEC50) (reversal of inhibition) (hGPR17L [5]; 3 µM forskolin): 5.40±0.09
- cAMP Potency (pIC50) (hGPR17L [5]; 3 µM forskolin): 8.52±0.08
- EC50 (hGPR17L [5]; 3 µM forskolin, read-out: cAMP Potency EC50 (reversal of inhibition)): 4000 nM
- IC50 (hGPR17L [5]; 3 µM forskolin-stimulated GloSensor cAMP, read-out: cAMP Potency IC50): 3 nM
- cAMP Effect of 100 μM MDL (% Inhibition) (hGPR17L [5]; 100 μM MDL29,951, 3 µM forskolin): 9.0±2.1%
- concentration at which maximum inhibition of F/I-stimulated GLP-1 secretion was observed (hGPR17L [6]): 25 µM
- effect on F/I-stimulated GLP-1 secretion (hGPR17L [6]; 100 nM MDL29,951, 10 μM forskolin and 10 μM IBMX): no effect
- effect on GLP-1 secretion under basal conditions (hGPR17L [6]; 100 nM or 100 µM MDL29,951, hGPR17L-transduced): no effect
- IC50 (hGPR17L [6]; 10 µM forskolin and 10 µM IBMX, no antagonist, read-out: IC50, inhibition of F/I-stimulated GLP-1 secretion): 300 nM
- inhibition of F/I-stimulated GLP-1 secretion (hGPR17L [6]; 100 μM MDL29,951): 30 ± 7.7%
- effect on PMA-stimulated GLP-1 secretion as compared to vehicle-treated cells (raw data) (hGPR17L [6]; 100 µM MDL29,951, 300 nM PMA): significantly inhibited
- pIC50, inhibition of F/I-stimulated GLP-1 secretion (hGPR17L [6]; no antagonist): 6.53 ± 0.31
